Paper PMC5929447 (Oncotarget, 2018)

System: caspase-3 activity in RS4;11 tumor xenografts
Assay: Caspase-3 activity in RS4;11 tumor xenografts
Type: in vivo
Settings: 16 h post dosing, SCID mice
Method: Body weights were recorded and tumors were measured with digital calipers twice to three times a week. Tumor volume was calculated using the formula: length × width^2/2. Percent changes in body weights was calculated as (BWcurrent - BWinitial)/(BWinitial) × 100. Data is presented as percent body weight change from the day of treatment initiation. When tumors reached approximately 200 mm^3 for efficacy studies or 300 mm^3 for pharmacodynamic studies, mice were randomized. […] Mice were treated via oral gavage at 10 ml/kg with the doses and schedules described in the figure. For pharmacodynamic studies, blood and tumors were removed 16 h post dosing and immediately snap-frozen. Total proteins were extracted from the tumors and caspase-3 activity was assessed in triplicate using CaspACE® Assay System (Promega). Platelet cell counts were determined 16 hours post dosing using Coulter AcT diff (Beckman).

`O=C(c1cc(-c2cc3c(cc2C(=O)N2Cc4ccccc4C[C@H]2CN2CCOCC2)OCO3)n2c1CCCC2)N(c1ccccc1)c1ccc(O)cc1` [S55746] was tested, and the “caspase-3 activity in tumor, times higher than in vehicle-treated animals” value (25 mg/kg single oral gavage) was “about 11 times” and the “caspase-3 activity in tumor, times higher than in vehicle-treated animals” value (100 mg/kg single oral gavage) was about 28 times.
